This note sets out measurements from ChEMBL document CHEMBL3217650, “Discovery of novel selective Sigma-1 ligands as cognitive enhancers” (Medchemcomm, 2011).

Converted amounts (≈) assume the structure as drawn. The source made the active and inactive calls. The calls are words filed in the database; no cut-off is given here.

Data set [1] in a line: Intrinsic clearance in mouse liver microsomes measured per mg of protein. The data set is classed as ADME. The settings on record: read-out: CLH. On the technique in general: Liver microsomes are vesicles of endoplasmic reticulum, rich in cytochrome P450 enzymes.
A short description of data set [2]: Dissociation constant, pKa of the compound. The data set is classed as physicochemical.
A further data set is filed under the species Homo sapiens. Briefly: Binding affinity to Ca2+ channel (unknown origin) at 10 uM by displacement assay relative to control.
For a further data set, the system named is Mus musculus. Put plainly: Antiamnesic activity in C57BL6/J mouse assessed as reduction of scopolamine-induced memory deficit at 1 to 23 mg/kg, ip administered 40 mins prior to acquisition trial by two-trial object recognition test. It counts as functional, organism-based.
Another data set is filed under the species Rattus norvegicus. Put plainly: Displacement of [3H]1,3-di-O-tolylguanidine from sigma-2 receptor in rat cerebral cortex at 10 uM relative to control. The data set is classed as tissue-based. For orientation: In a radioligand displacement assay an active substance lowers the binding of a labelled ligand.
The target of data set [3] is Histamine H3 receptor (Homo sapiens) (UniProt Q9Y5N1). Briefly: Binding affinity to histamine H3 receptor (unknown origin) at 10 uM by displacement assay relative to control.
Chain of Histamine H3 receptor (Homo sapiens) (Q9Y5N1 whole entry): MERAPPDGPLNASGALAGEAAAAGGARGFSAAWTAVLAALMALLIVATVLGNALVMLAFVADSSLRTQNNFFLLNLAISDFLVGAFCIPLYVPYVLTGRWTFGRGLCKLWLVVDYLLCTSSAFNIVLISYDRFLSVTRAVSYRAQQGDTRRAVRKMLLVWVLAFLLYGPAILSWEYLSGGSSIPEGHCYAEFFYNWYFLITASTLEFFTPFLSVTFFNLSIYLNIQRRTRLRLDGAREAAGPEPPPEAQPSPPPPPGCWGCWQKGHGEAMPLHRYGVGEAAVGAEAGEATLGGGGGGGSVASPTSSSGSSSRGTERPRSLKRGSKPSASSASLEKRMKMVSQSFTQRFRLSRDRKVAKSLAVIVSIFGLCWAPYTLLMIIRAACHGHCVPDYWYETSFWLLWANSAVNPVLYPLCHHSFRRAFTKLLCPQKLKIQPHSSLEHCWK
Data set [4] can be described thus: Intrinsic clearance in rat liver microsomes measured per mg of protein. The data set is classed as ADME. Conditions: read-out: CLH.
A short description of data set [5]: Intrinsic clearance in human liver microsomes measured per mg of protein. The data set is classed as ADME. The settings on record: read-out: CLH.
The nature of data set [6]: Octanol-water distribution coefficient, log D of the compound at pH 7.4. The data set is classed as physicochemical. Conditions: read-out: logD.
A short description of data set [7]: Ratio of drug level in brain to plasma in C57BL6/J mouse at 1 mg/kg, ip measured at 40 mins. It counts as ADME, organism-based. Also on record: dose 1 mg/kg, route intraperitoneal. Conditions: brain and plasma, read-out: BPR.
Data set [8] in a line: Apparent permeability across apical to basolateral side in human Caco2 cells at 20 uM measured up to 3 hrs. The data set is classed as ADME, cell-based. The settings on record: Caco-2. On the technique in general: Caco-2 monolayers are a common model of the intestinal barrier.
A short description of data set [9]: Solubility of the compound at pH 7.4. The data set is classed as physicochemical. The settings on record: buffer.
The target of data set [10] is Sigma non-opioid intracellular receptor 1 (Homo sapiens, UniProt Q99720). Briefly: Displacement of [3H]-pentazocine from human recombinant sigma-1 receptor expressed in CHO cells after 180 mins by beta counting analysis. It counts as cell-based.
Chain of Sigma non-opioid intracellular receptor 1 (Q99720 whole entry): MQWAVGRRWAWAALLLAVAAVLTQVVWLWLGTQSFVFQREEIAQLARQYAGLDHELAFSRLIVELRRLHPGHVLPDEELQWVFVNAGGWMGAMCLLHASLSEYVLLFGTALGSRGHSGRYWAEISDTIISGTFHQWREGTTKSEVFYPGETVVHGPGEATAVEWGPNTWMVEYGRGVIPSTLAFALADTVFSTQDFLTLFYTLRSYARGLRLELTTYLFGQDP

For `O=C([C@H]1C[C@@H]1c1ccccc1)N1CCC(N2CCCCC2)CC1` (racemic), the microsomal CLint in data set [1] came out at 50 µL/min/mg; in data set [4] it was 32 µL/min/mg; in data set [5] it was 56 µL/min/mg. This molecule had a pKa in [2] of 9.3. For the same molecule, the inhibition (in the data set listed under Homo sapiens; in the data set filed under Rattus norvegicus; in data set [3]) was 50% throughout. In the data set on Mus musculus, the result was Active. The logD in [6] came out at 1.1. In [7], the Kp at 40 min came out at 13.5. The Papp A→B at 3 h, 20 µM in data set [8] came to 16.6 ×10⁻⁶ cm/s. Further, in data set [9], the solubility was determined as 1100 µg/mL (≈ 3.52 mM). In addition, the Ki in data set [10] is 79.4 nM.

Broadly, the pKa is the negative logarithm of the acid dissociation constant. High values mean a group that holds its proton tightly, low ones a group that gives up its proton readily. One may read the inhibition as the percentage by which the read-out fell short of the control. Higher therefore signals a response far below the control. Broadly, the logD is lipophilicity at a set pH, counting ionised and neutral species. The Papp A→B is the apparent permeability from the apical to the basolateral side of a cell layer. In general, solubility refers to the concentration that dissolves in the medium under given conditions. In general, Ki refers to a dissociation constant, usually derived from enzyme kinetics or from competition with a known ligand.
